Results as given in patent US20050123602A1, “Rifalazil formulations” (priority 2003, published 2005).

Experiment: Pharmacokinetics after single peroral administration of 5 mg rifalazil, fed and fasted
Format: in vivo, beagle dogs
Conditions: dogs, liquid-filled vs microgranulated
Experimental: Pharmacokinetic parameters were determined following a single peroral administration of 5 mg of rifalazil in healthy male beagle dogs. The rifalazil was formulated either as a liquid-filled capsule of Example 3 or as a powder-filled capsule containing microgranulated rifalazil as described in U.S. Pat. No. 5,547,683.
Both formulations were administered under fed and fasted conditions. All animals were fasted overnight prior to dosing. Animals designated as “fed” were administered a blended combination of dog chow and water in a 1:3 ratio (e.g. 250 g chow and 750 g water) via oral gavage at a dose volume of 20 mL/kg within approximately 30 minutes prior to dosing and food was provided Ad-libitum after approximately 4 hours following dosing. Animals in “fasted” groups were not fed prior to dosing and food was withheld until after approximately 4 hours after dosing. […]
Pharmacokinetic endpoints and parameters were calculated by noncompartmental analysis (NCA) using WinNonlin®.
The pharmacokinetic parameters Tmax, Cmax, AUCt, AUC∞, T1/2 (elimination), and F (bioavailability) were calculated as well as the coefficient of variation (CV) in each. […]

CO[C@H]1/C=C/O[C@@]2(C)Oc3c(C)c(O)c4c(=O)c(c5oc6cc(N7CCN(CC(C)C)CC7)cc(O)c6nc-5c4c3C2=O)NC(=O)/C(C)=C\C=C\[C@H](C)[C@H](O)[C@@H](C)[C@@H](O)[C@@H](C)[C@H](OC(C)=O)[C@@H]1C [rifalazil, Rifalazil]
effect of changes in the formulation upon elimination half-life (T1/2): no effect
